Measurements reported in patent publication US4477458A, “Thiazolidine derivatives and their mucolytic compositions and methods” (Camillo Corvi S.p.A., priority 1981, dated 1984).
Where a name gives a salt, the structure may show the parent alone.

Tests used:
[1] = tested on: mucus production of rabbit; assay: Activity on mucus production of rabbit (method of R. Scuri and Coll.); type: in vivo; settings: for Mucoproduction at hours 0 - 4: mean ± E.S.
[2] = tested on: mucus of sound animals (rabbits); assay: Fluidizing activity - viscosity of mucus of sound animals (Contraves Rehomat microviscosimeter); type: in vivo, rabbit; settings: 20 mg/kg i.v.
Method: (§1) The pharmacological activity was measured by studying the effect on the compound (CO/1177) on:
(§2) (b) viscosity of mucus of sound animals (rabbits) and/or of animals made bronchitic experimentally by using, for the viscosimeter measures, a Contraves Rehomat microviscosimeter at 15 automatic scanning speeds;

[3] = tested on: mucus of animals made bronchitic experimentally; assay: Fluidizing activity - viscosity of mucus of experimentally bronchitic animals (Contraves Rehomat microviscosimeter); type: in vivo, rabbit; settings: 20 mg/kg i.v.
Method: as §1, §2

gastric mucin of the pig = assay: "in vitro" viscosity of gastric mucin of the pig (Contraves Rehomat microviscosimeter); settings: conc. 2 %; for Viscosity of gastric mucin: 0.1 ml; for Viscosity of gastric mucin, Var. %: vs Mucin + H2O
Method: The pharmacological activity was measured by studying the effect on the compound (CO/1177) on: (c) "in vitro" viscosity of gastric mucin of the pig by using, for the viscometer measures, a Contraves Rehomat microviscosimeter at 15 automatic scanning speeds.

Acute toxicity, mouse = settings: in vivo
Method: (§3) The acute and subacute toxicity tests were performed by using Swiss mice and Wistar rats of both sexes.

Acute toxicity, rat = settings: in vivo
Method: as §3

Acute toxicity, rabbit = settings: in vivo, iv

Compound: O=C(O)c1ccccc1C(=O)N1CCSC1 [CO/1177, 2-(1,3-thiazolidin-3-yl)-carbonyl-benzoic acid (Na salt)]
- Mucoproduction at hours 0 - 4 ([1]; 2.5 mg/kg i.v.): 52.760 ± 20.29 mg/h
- Mucoproduction at hours 0 - 4 ([1]; 5 mg/kg i.v.): 37.650 ± 0.231 mg/h
- Mucoproduction at hours 0 - 4 ([1]; 10 mg/kg i.v.): 49.250 ± 6.020 mg/h
- Mucoproduction at hours 0 - 4 ([1]; 100 mg/kg os): 34.320 ± 5.850 mg/h
- Mucoproduction at hours 0 - 4 ([1]; 200 mg/kg os): 86.250 ± 10.80 mg/h
- Mucoproduction at hours 0 - 4 ([1]; 400 mg/kg os): 30.730 ± 7.630 mg/h
- change in vivo at 2.5 mg/kg ([1]; Oryctolagus cuniculus, iv, 2.5 mg/kg i.v., 0-4 h vs -4-0 h, read-out: Mucoproduction Var. %): 32%
- change in vivo at 5 mg/kg ([1]; Oryctolagus cuniculus, iv, 5 mg/kg i.v., 0-4 h vs -4-0 h, read-out: Mucoproduction Var. %): 34.6%
- change in vivo at 10 mg/kg ([1]; Oryctolagus cuniculus, iv, 10 mg/kg i.v., 0-4 h vs -4-0 h, read-out: Mucoproduction Var. %): 71%
- change in vivo at 100 mg/kg ([1]; Oryctolagus cuniculus, po, 100 mg/kg os, 0-4 h vs -4-0 h, read-out: Mucoproduction Var. %): 16.3%
- change in vivo at 200 mg/kg ([1]; Oryctolagus cuniculus, po, 200 mg/kg os, 0-4 h vs -4-0 h, read-out: Mucoproduction Var. %): 51.2%
- change in vivo at 400 mg/kg ([1]; Oryctolagus cuniculus, po, 400 mg/kg os, 0-4 h vs -4-0 h, read-out: Mucoproduction Var. %): 97.6%
- Viscosity Var. % ([2]; speed 17.4 g/min): -100%
- Viscosity, time 0-24 ([2]; speed 17.4 g/min): 0 cps
- Viscosity Var. % ([2]; speed 25 g/min): -81.7%
- Viscosity, time 0-24 ([2]; speed 25 g/min): 0.88 cps
- Viscosity Var. % ([2]; speed 33.6 g/min): -78.6%
- Viscosity, time 0-24 ([2]; speed 33.6 g/min): 1.97 cps
- Viscosity Var. % ([2]; speed 44.3 g/min): -71.5%
- Viscosity, time 0-24 ([2]; speed 44.3 g/min): 2.00 cps
- Viscosity Var. % ([2]; speed 56.1 g/min): -67.6%
- Viscosity, time 0-24 ([2]; speed 56.1 g/min): 2.43 cps
- Viscosity Var. % ([2]; speed 77.9 g/min): -53.6%
- Viscosity, time 0-24 ([2]; speed 77.9 g/min): 2.55 cps
- Viscosity Var. % ([2]; speed 113.2 g/min): -37.7%
- Viscosity, time 0-24 ([2]; speed 113.2 g/min): 2.25 cps
- Viscosity Var. % ([2]; speed 152 g/min): -36.3%
- Viscosity, time 0-24 ([2]; speed 152 g/min): 2.18 cps
- Viscosity Var. % ([2]; speed 200 g/min): -41.4%
- Viscosity, time 0-24 ([2]; speed 200 g/min): 2.04 cps
- Viscosity Var. % ([2]; speed 266.8 g/min): -39.2%
- Viscosity, time 0-24 ([2]; speed 266.8 g/min): 1.94 cps
- Viscosity Var. % ([2]; speed 352 g/min): -37.4%
- Viscosity, time 0-24 ([2]; speed 352 g/min): 1.91 cps
- Viscosity, time 0-24 ([3]; speed 17.4 g/min): 50.30 cps
- Viscosity Var. % ([3]; speed 25 g/min): -58.4%
- Viscosity, time 0-24 ([3]; speed 25 g/min): 41.5 cps
- Viscosity Var. % ([3]; speed 33.6 g/min): -60%
- Viscosity, time 0-24 ([3]; speed 33.6 g/min): 28.70 cps
- Viscosity Var. % ([3]; speed 44.3 g/min): -56.6%
- Viscosity, time 0-24 ([3]; speed 44.3 g/min): 22.4 cps
- Viscosity Var. % ([3]; speed 56.1 g/min): -51.9%
- Viscosity, time 0-24 ([3]; speed 56.1 g/min): 14.50 cps
- Viscosity Var. % ([3]; speed 77.9 g/min): -60.9%
- Viscosity, time 0-24 ([3]; speed 77.9 g/min): 10.7 cps
- Viscosity Var. % ([3]; speed 113.2 g/min): -63.8%
- Viscosity, time 0-24 ([3]; speed 113.2 g/min): 6.7 cps
- Viscosity Var. % ([3]; speed 152 g/min): -68.1%
- Viscosity, time 0-24 ([3]; speed 152 g/min): 5.2 cps
- Viscosity Var. % ([3]; speed 200 g/min): -66.7%
- Viscosity, time 0-24 ([3]; speed 200 g/min): 4.0 cps
- Viscosity Var. % ([3]; speed 266.8 g/min): -71.8%
- Viscosity, time 0-24 ([3]; speed 266.8 g/min): 2.4 cps
- Viscosity Var. % ([3]; speed 352 g/min): -68.9%
- Viscosity, time 0-24 ([3]; speed 352 g/min): 1.9 cps
- Viscosity of gastric mucin (gastric mucin of the pig; speed 17.4 g/min): 24.87 cps
- Viscosity of gastric mucin (gastric mucin of the pig; speed 25 g/min): 22.39 cps
- Viscosity of gastric mucin (gastric mucin of the pig; speed 33.6 g/min): 24.05 cps
- Viscosity of gastric mucin (gastric mucin of the pig; speed 44.3 g/min): 22.92 cps
- Viscosity of gastric mucin (gastric mucin of the pig; speed 56.1 g/min): 23.14 cps
- Viscosity of gastric mucin (gastric mucin of the pig; speed 77.9 g/min): 20.91 cps
- Viscosity of gastric mucin (gastric mucin of the pig; speed 113.2 g/min): 20.88 cps
- Viscosity of gastric mucin (gastric mucin of the pig; speed 152 g/min): 18.81 cps
- Viscosity of gastric mucin (gastric mucin of the pig; speed 200 g/min): 17.24 cps
- Viscosity of gastric mucin (gastric mucin of the pig; speed 266.8 g/min): 15.48 cps
- Viscosity of gastric mucin (gastric mucin of the pig; speed 352 g/min): 14.29 cps
- Viscosity of gastric mucin, Var. % (gastric mucin of the pig; speed 17.4 g/min): -10.9%
- Viscosity of gastric mucin, Var. % (gastric mucin of the pig; speed 25 g/min): -19.1%
- Viscosity of gastric mucin, Var. % (gastric mucin of the pig; speed 33.6 g/min): -10.1%
- Viscosity of gastric mucin, Var. % (gastric mucin of the pig; speed 44.3 g/min): -14.1%
- Viscosity of gastric mucin, Var. % (gastric mucin of the pig; speed 56.1 g/min): -11%
- Viscosity of gastric mucin, Var. % (gastric mucin of the pig; speed 77.9 g/min): -15.4%
- Viscosity of gastric mucin, Var. % (gastric mucin of the pig; speed 113.2 g/min): -8.1%
- Viscosity of gastric mucin, Var. % (gastric mucin of the pig; speed 152 g/min): -9.1%
- Viscosity of gastric mucin, Var. % (gastric mucin of the pig; speed 200 g/min): -8.1%
- Viscosity of gastric mucin, Var. % (gastric mucin of the pig; speed 266.8 g/min): -10%
- Viscosity of gastric mucin, Var. % (gastric mucin of the pig; speed 352 g/min): -7.1%
- LD50 (Acute toxicity, mouse; iv): 3000 mg/kg
- LD50 (Acute toxicity, mouse; po): > 5000 mg/kg
- LD50 (Acute toxicity, rat; iv): > 5000 mg/kg
- LD50 (Acute toxicity, rat; po): > 5000 mg/kg
- LD50 (Acute toxicity, rabbit): ~3500 mg/kg
